Results as given in publication PMC6472001, “Phenolic Compounds from Humulus lupulus as Natural Antimicrobial Products: New Weapons in the Fight against Methicillin Resistant Staphylococcus aureus, Leishmania mexicana and Trypanosoma brucei Strains” (Molecules, 2019).
Converted amounts (≈) assume the structure as drawn.

Assays:
S. aureus T28.1 = test: Post-antibiotic effect (PAE); format: cell-based, Staphylococcus aureus; details: for Maximum Growth Retardation: 2 h exposure
Procedure: This method allows quantifying the delayed regrowth of a bacterial population following exposure to an active compound [76]. Stock solutions of xanthohumol, desmethylxanthohumol and lupulone were prepared in DMSO 20 times more concentrated than the desired final concentrations (MIC/4 to 4 × MIC). A 2 h pre-treatment with purified prenylated compounds was performed using 8.5 mL of BHI medium, 0.5 mL of purified product in DMSO and 1 mL of a bacterial suspension at 10^5 CFU/mL, incubated at 37 °C. […] The hop compound was then inactivated by a 1000-fold dilution. After inactivation, a growth curve was performed with counts at 30 min and every 2 h. The growth lag was quantified by comparison with the control, using the following formula: PAE=T−C
T is the time needed for the bacterial population to grow by 1 log(CFU/mL) at the given concentration, C is the corresponding time for the control (Figure 5)

S. aureus T28.1 biofilm [1] = test: Anti-biofilm: destruction of preformed biofilm on artificial surface; format: cell-based, Staphylococcus aureus
Procedure: These experiments were inspired and adapted from Liu et al.. They were performed using a 96-well microplate with a flat bottom.
The effect was also evaluated after the biofilm formation in order to evaluate if the hop phenolic compounds are able to destroy it. A first culture of 24 h at 37 °C with 190 µL of BHI medium and 10 µL of a 10^5 CFU/mL bacterial suspension allowed producing the biofilm. Wells were voided and washed with PBS. The biofilm was then treated with xanthohumol, desmethylxanthohumol or lupulone diluted at 5% in the BHI medium to obtain a final volume of 200 µL. Plates were incubated for 24 h at 37 °C, then voided and colored with crystal violet as above.

S. aureus T28.1 biofilm [2] = test: Anti-biofilm: biofilm formation on synthetic bone substitute; format: cell-based, Staphylococcus aureus; details: at MIC
Procedure: β-Tricalcium phosphate discs (Cerasorb®, Curasan, Germany) were used as bone substitute. Non-glucose enriched BHI medium was used here, because the bacterial glucose metabolism causes an acidification of the culture medium which leads to the disintegration of the discs. Discs were introduced in a 24-well plate: 1.8 mL of BHI media were added with 0.1 mL of product in DMSO (5%) and 0.1 mL of a 10^5 CFU/mL bacterial suspension. Final concentrations of hop phenolic compounds were from MIC/4 to 4 × MIC. After 24 h at 37 °C, counts were performed in two steps. First, planktonic bacteria were counted from 100 µL of the culture supernatant by plating tenfold dilutions on MHA. Then, bacteria adhering to the discs were counted: discs were removed and washed with a CR solution, then, 10 mL of CR were added to each disk and treated 1 min by sonication (35 kHz) and 30 s by vortex. The obtained suspension was enumerated as previously. The detection threshold was also 1 log(CFU/mL).

biofilm formation = tested on: biofilm formation; design: method as in PMID 24175280; details: at the MIC; cited from earlier work
[3] = tested on: human hepatocellular carcinoma; design: method as in PMID 18814205; details: cited from earlier work
lung cell line = tested on: lung cell line; design: method as in PMID 26664015; details: cited from earlier work
Plasmodium falciparum = tested on: Plasmodium falciparum; design: method as in PMID 15824094; details: cited from earlier work
mice = tested on: mice; design: method as in PMID 20427021; details: approximately 1000 mg/kg of body weight of mice; cited from earlier work
humans = tested on: humans; design: method as in PMID 24038952; details: up to 180 mg in humans for a short intake; cited from earlier work
Leishmania amazonensis = tested on: Leishmania amazonensis; design: method as in PMID 27938439; details: cited from earlier work
[4] = tested on: selected S. aureus strains; test: Broth microdilution MIC, range over strains; format: cell-based; details: Staphylococcus aureus; range over MRSA and MSSA strains of Table 3; read-out: MIC against selected S. aureus strains
Procedure: (§1) The protocol employed was inspired by Abedini et al. with some modifications. Products were solubilized in DMSO and serially diluted two-fold in MH medium. A bacterial suspension at 10^5 CFU/mL was added to obtain a final volume of 200 µL. Final phenolic product concentrations in wells ranged from 625 to 2.4 µg/mL (exception for lupulone for which dilutions were continued until 0.3 µg/mL). […] Plates were incubated overnight with stirring (60 rpm) at 37 °C.

MRSA strains = test: Broth microdilution MIC, range over strains; format: cell-based; details: Staphylococcus aureus, read-out: MICs towards MRSA strains
Procedure: as §1

| Compound | Maximum Growth Retardation (S. aureus T28.1; 4 × MIC) [h] | Maximum Growth Retardation (S. aureus T28.1; MIC/2) [h] | Maximum Growth Retardation (S. aureus T28.1; MIC) [h] | Maximum delay after inactivation (S. aureus T28.1; over all concentrations) [min] | Biofilm destruction (S. aureus T28.1 biofilm [1]; MIC/4) [%] | Biofilm formation on bone substitute discs (S. aureus T28.1 biofilm [2]) | Inhibition of biofilm formation (biofilm formation) [%] | IC50 [3] | IC50 (lung cell line) [µg/mL] | IC50 (Plasmodium falciparum) | Safety in vivo (mice) | Safety in vivo (humans) | Maximum Growth Retardation (S. aureus T28.1; 2 × MIC) [h] | IC50 (Leishmania amazonensis) | MIC [4] [µg/mL] | MIC (MRSA strains) [µg/mL] | Biofilm destruction (S. aureus T28.1 biofilm [1]; at the MIC and above) |
| --- | --- | --- | --- | --- | --- | --- | --- | --- | --- | --- | --- | --- | --- | --- | --- | --- | --- |
| lupulone | 0.47 | 0.26 | 0.53 | ~55 | 62.8 | significant decrease |  |  |  |  |  |  |  |  |  |  |  |
| COc1cc(O)c(CC=C(C)C)c(O)c1C(=O)/C=C/c1ccc(O)cc1 [XN, xanthohumol] | 3.29 | 1.34 | 2.23 |  |  |  | 86.5 | about 75 µg/mL | ~100 (≈ 282 µM) | in the µM range | good safety | good safety | 2.05 | in the µM range | 9.8 to 19.5 (≈ 27.7 to 55 µM) | 9.8 to 19.5 (≈ 27.7 to 55 µM) | non-dose-dependent activity |
| CC(C)=CCc1c(O)cc(O)c(C(=O)/C=C/c2ccc(O)cc2)c1O [DMX, desmethylxanthohumol] | 2.34 | 2.10 | 2.32 |  | 81 | significant decrease |  |  |  |  |  |  | 2.29 |  | 19.5 to 39 (≈ 57.3 to 115 µM) | 19.5 to 39 (≈ 57.3 to 115 µM) |  |
